Assay results reported in patent US10968178B2, “IP6K inhibitors” (TAKEDA PHARMACEUTICAL COMPANY LIMITED, priority 2017, dated 2021).

Tests used:
Type in all cases: biochemical
human IP6K2 = target: T1, human IP6K2 (Homo sapiens, UniProt Q9UHH9); assay: IP6K enzyme inhibitory assay (ADP-Glo Kinase Assay), human IP6K2; settings: compound concentration 0.1 μM; read-out: ADP-Glo method inhibitory rate (%) human IP6K2
T1 construct: human IP6K2 (1-426) gene; GST; made in house; host or cells: Sf-9 insect cells
T1 sequence (Q9UHH9 1-426): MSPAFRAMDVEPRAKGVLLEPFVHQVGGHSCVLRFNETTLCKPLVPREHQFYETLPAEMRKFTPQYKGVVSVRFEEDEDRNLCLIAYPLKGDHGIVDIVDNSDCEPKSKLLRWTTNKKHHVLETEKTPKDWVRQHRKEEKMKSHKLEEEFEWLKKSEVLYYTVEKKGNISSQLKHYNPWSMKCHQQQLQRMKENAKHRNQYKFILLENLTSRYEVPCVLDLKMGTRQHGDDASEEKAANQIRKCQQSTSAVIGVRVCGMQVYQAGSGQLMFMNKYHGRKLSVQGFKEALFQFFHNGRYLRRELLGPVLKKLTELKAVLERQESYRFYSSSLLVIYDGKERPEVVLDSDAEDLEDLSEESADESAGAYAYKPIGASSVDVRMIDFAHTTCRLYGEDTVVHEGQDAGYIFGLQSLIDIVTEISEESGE
In short: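 The inhibitory activity against human IP6K2 was measured with Promega's ADP-Glo Kinase Assay in 384 well plates. Test compound, diluted in assay buffer (20 mM HEPES (pH 7.5), 6 mM MgCl2, 0.01% Tween-20, 1 mM DTT), was added at 2 μL. Adding 2 μL of diluted enzyme started the reaction, which ran for 60 min at room temperature. Next, 3 μL ADP-Glo solution (30 min) and 6 μL Kinase-Detection solution (60 min) were added, and luminescence was read on an Envision plate reader.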

human IP6K1 = target: T2, human IP6K1 (Homo sapiens, UniProt Q92551); assay: IP6K enzyme inhibitory assay (ADP-Glo Kinase Assay), human IP6K1; settings: compound concentration 0.1 μM; read-out: ADP-Glo method inhibitory rate (%) human IP6K1
T2 construct: human IP6K1 (1-441) gene; GST; made in house; host or cells: Sf-9 insect cells
In short: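 Inhibition of human IP6K1 was determined with Promega's ADP-Glo Kinase Assay in 384 well plates. Test compound diluted in assay buffer (20 mM HEPES (pH 7.5), 6 mM MgCl2, 0.01% Tween-20, 1 mM DTT) was added at 2 μL, then 2 μL of enzyme started the reaction for 60 min at room temperature. Next came 3 μL ADP-Glo solution for 30 min and 6 μL Kinase-Detection solution for 60 min. Luminescence was read on an Envision plate reader.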

human IP6K3 = target: T3, human IP6K3 (Homo sapiens, UniProt Q96PC2); assay: IP6K enzyme inhibitory assay (ADP-Glo Kinase Assay), human IP6K3; settings: compound concentration 0.1 μM; read-out: ADP-Glo method inhibitory rate (%) human IP6K3
T3 construct: human IP6K3 (1-410) gene; made in house; host or cells: BL21 (DE3) Escherichia coli
T3 sequence (Q96PC2 1-410): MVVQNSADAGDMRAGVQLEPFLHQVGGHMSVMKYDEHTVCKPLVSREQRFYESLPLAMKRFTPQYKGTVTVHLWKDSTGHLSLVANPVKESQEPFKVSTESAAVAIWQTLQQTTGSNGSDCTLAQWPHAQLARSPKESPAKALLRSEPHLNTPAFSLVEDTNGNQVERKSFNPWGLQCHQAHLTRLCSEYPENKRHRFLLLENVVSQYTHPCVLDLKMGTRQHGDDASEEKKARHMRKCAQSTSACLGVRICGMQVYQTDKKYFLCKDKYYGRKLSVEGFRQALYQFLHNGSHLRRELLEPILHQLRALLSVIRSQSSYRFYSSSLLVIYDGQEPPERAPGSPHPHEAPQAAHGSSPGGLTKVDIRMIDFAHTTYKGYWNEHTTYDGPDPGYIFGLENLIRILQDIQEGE
In short: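 Recombinant human IP6K (IP6K3 residues 1-410, E. coli, Ni-NTA purified) incubated with compound in 20 mM HEPES pH 7.5, 6 mM MgCl2, 0.01% Tween-20, 1 mM DTT for 60 min at room temperature. ADP formed read as luminescence by ADP-Glo.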

T2 sequence (Q92551 whole entry): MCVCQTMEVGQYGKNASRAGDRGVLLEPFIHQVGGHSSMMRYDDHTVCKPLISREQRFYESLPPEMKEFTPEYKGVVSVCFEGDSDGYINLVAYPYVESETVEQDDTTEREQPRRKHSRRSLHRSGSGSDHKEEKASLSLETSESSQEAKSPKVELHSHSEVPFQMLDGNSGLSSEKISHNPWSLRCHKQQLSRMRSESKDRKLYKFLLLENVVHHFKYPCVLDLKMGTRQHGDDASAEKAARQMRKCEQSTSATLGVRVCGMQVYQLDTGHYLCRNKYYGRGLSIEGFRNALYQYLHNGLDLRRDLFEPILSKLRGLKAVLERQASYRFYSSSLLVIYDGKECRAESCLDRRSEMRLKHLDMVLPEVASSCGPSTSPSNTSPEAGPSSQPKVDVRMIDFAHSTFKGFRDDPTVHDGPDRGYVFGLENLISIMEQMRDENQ

SMILES: O=C(O)c1ccc2c(c1)[C@]1(CC[C@@H](Oc3cc(F)cc(Cl)c3)CC1)C(=O)N2 [Example 64, (1r,4r)-4-(3-chloro-5-fluorophenoxy)-2′-oxo-1′,2′-dihydrospiro[cyclohexane-1,3′-indole]-5′-carboxylic acid]
- inhibition at 0.1 µM (human IP6K2): 93%
- inhibition at 0.1 µM (human IP6K1): 80%
- inhibition at 0.1 µM (human IP6K3): 94%

SMILES: O=C(O)c1ccc2c(c1)[C@]1(CC[C@@H](Oc3cc(F)ccc3Cl)CC1)C(=O)N2 [Example 65, (1r,4r)-4-(2-chloro-5-fluorophenoxy)-2′-oxo-1′,2′-dihydrospiro[cyclohexane-1,3′-indole]-5′-carboxylic acid]
- inhibition at 0.1 µM (human IP6K2): 95%
- inhibition at 0.1 µM (human IP6K1): 93%
- inhibition at 0.1 µM (human IP6K3): 97%

SMILES: O=C(O)c1ccc2c(c1)[C@]1(CC[C@@H](Oc3ccc(Cl)cc3F)CC1)C(=O)N2 [Example 66, (1r,4r)-4-(4-chloro-2-fluorophenoxy)-2′-oxo-1′,2′-dihydrospiro[cyclohexane-1,3′-indole]-5′-carboxylic acid]
- inhibition at 0.1 µM (human IP6K2): 100%
- inhibition at 0.1 µM (human IP6K1): 99%
- inhibition at 0.1 µM (human IP6K3): 96%

SMILES: O=C(O)c1ccc2c(c1)[C@]1(CC[C@@H](Oc3ccc(F)c(Cl)c3)CC1)C(=O)N2 [Example 67, (1r,4r)-4-(3-chloro-4-fluorophenoxy)-2′-oxo-1′,2′-dihydrospiro[cyclohexane-1,3′-indole]-5′-carboxylic acid]
- inhibition at 0.1 µM (human IP6K2): 98%
- inhibition at 0.1 µM (human IP6K1): 93%
- inhibition at 0.1 µM (human IP6K3): 97%

SMILES: O=C(O)c1ccc2c(c1)[C@]1(CC[C@@H](Oc3ccc(F)cc3Cl)CC1)C(=O)N2 [Example 68, (1r,4r)-4-(2-chloro-4-fluorophenoxy)-2′-oxo-1′,2′-dihydrospiro[cyclohexane-1,3′-indole]-5′-carboxylic acid]
- inhibition at 0.1 µM (human IP6K2): 98%
- inhibition at 0.1 µM (human IP6K1): 93%
- inhibition at 0.1 µM (human IP6K3): 98%

SMILES: O=C(O)c1ccc2c(c1)[C@]1(CC[C@@H](Oc3ccc(Cl)c(F)c3)CC1)C(=O)N2 [Example 69, (1r,4r)-4-(4-chloro-3-fluorophenoxy)-2′-oxo-1′,2′-dihydrospiro[cyclohexane-1,3′-indole]-5′-carboxylic acid]
- inhibition at 0.1 µM (human IP6K2): 100%
- inhibition at 0.1 µM (human IP6K1): 100%
- inhibition at 0.1 µM (human IP6K3): 96%

SMILES: COc1ccc(O[C@H]2CC[C@@]3(CC2)C(=O)Nc2ccc(C(=O)O)cc23)c(C#N)c1 [Example 70, (1r,4r)-4-(2-cyano-4-methoxyphenoxy)-2′-oxo-1′,2′-dihydrospiro[cyclohexane-1,3′-indole]-5′-carboxylic acid]
- inhibition at 0.1 µM (human IP6K2): 99%
- inhibition at 0.1 µM (human IP6K1): 99%
- inhibition at 0.1 µM (human IP6K3): 99%

SMILES: N#Cc1cc(O[C@H]2CC[C@@]3(CC2)C(=O)Nc2ccc(C(=O)O)cc23)ccc1Cl [Example 71, (1r,4r)-4-(4-chloro-3-cyanophenoxy)-2′-oxo-1′,2′-dihydrospiro[cyclohexane-1,3′-indole]-5′-carboxylic acid]
- inhibition at 0.1 µM (human IP6K2): 90%
- inhibition at 0.1 µM (human IP6K1): 88%
- inhibition at 0.1 µM (human IP6K3): 95%

SMILES: N#Cc1ccc(O[C@H]2CC[C@@]3(CC2)C(=O)Nc2ccc(C(=O)O)cc23)c(Cl)c1 [Example 72, (1r,4r)-4-(2-chloro-4-cyanophenoxy)-2′-oxo-1′,2′-dihydrospiro[cyclohexane-1,3′-indole]-5′-carboxylic acid]
- inhibition at 0.1 µM (human IP6K2): 97%
- inhibition at 0.1 µM (human IP6K1): 99%
- inhibition at 0.1 µM (human IP6K3): 97%

SMILES: N#Cc1ccc(O[C@H]2CC[C@@]3(CC2)C(=O)Nc2ccc(C(=O)O)cc23)cc1Cl [Example 73, (1r,4r)-4-(3-chloro-4-cyanophenoxy)-2′-oxo-1′,2′-dihydrospiro[cyclohexane-1,3′-indole]-5′-carboxylic acid]
- inhibition at 0.1 µM (human IP6K2): 97%
- inhibition at 0.1 µM (human IP6K1): 98%
- inhibition at 0.1 µM (human IP6K3): 91%

SMILES: O=C(O)c1ccc2c(c1)[C@]1(CC[C@@H](Oc3ccccc3C(F)(F)F)CC1)C(=O)N2 [Example 74, (1r,4r)-2′-oxo-4-(2-(trifluoromethyl)phenoxy)-1′,2′-dihydrospiro[cyclohexane-1,3′-indole]-5′-carboxylic acid]
- inhibition at 0.1 µM (human IP6K2): 92%
- inhibition at 0.1 µM (human IP6K1): 93%
- inhibition at 0.1 µM (human IP6K3): 92%

SMILES: O=C(O)c1ccc2c(c1)[C@]1(CC[C@@H](Oc3cccc(C(F)(F)F)c3)CC1)C(=O)N2 [Example 75, (1r,4r)-2′-oxo-4-(3-(trifluoromethyl)phenoxy)-1′,2′-dihydrospiro[cyclohexane-1,3′-indole]-5′-carboxylic acid]
- inhibition at 0.1 µM (human IP6K2): 94%
- inhibition at 0.1 µM (human IP6K1): 89%
- inhibition at 0.1 µM (human IP6K3): 89%

SMILES: O=C(O)c1ccc2c(c1)[C@]1(CC[C@@H](Oc3cc(F)cc(C(F)(F)F)c3)CC1)C(=O)N2 [Example 76, (1r,4r)-4-(3-fluoro-5-(trifluoromethyl)phenoxy)-2′-oxo-1′,2′-dihydrospiro[cyclohexane-1,3′-indole]-5′-carboxylic acid]
- inhibition at 0.1 µM (human IP6K2): 86%
- inhibition at 0.1 µM (human IP6K1): 81%
- inhibition at 0.1 µM (human IP6K3): 86%

SMILES: O=C(O)c1ccc2c(c1)[C@]1(CC[C@@H](Oc3cccc(C(F)(F)F)c3F)CC1)C(=O)N2 [Example 77, (1r,4r)-4-(2-fluoro-3-(trifluoromethyl)phenoxy)-2′-oxo-1′,2′-dihydrospiro[cyclohexane-1,3′-indole]-5′-carboxylic acid]
- inhibition at 0.1 µM (human IP6K2): 99%
- inhibition at 0.1 µM (human IP6K1): 94%
- inhibition at 0.1 µM (human IP6K3): 98%

SMILES: O=C(O)c1ccc2c(c1)[C@]1(CC[C@@H](Oc3cc(C(F)(F)F)ccc3F)CC1)C(=O)N2 [Example 78, (1r,4r)-4-(2-fluoro-5-(trifluoromethyl)phenoxy)-2′-oxo-1′,2′-dihydrospiro[cyclohexane-1,3′-indole]-5′-carboxylic acid]
- inhibition at 0.1 µM (human IP6K2): 96%
- inhibition at 0.1 µM (human IP6K1): 96%
- inhibition at 0.1 µM (human IP6K3): 98%

SMILES: O=C(O)c1ccc2c(c1)[C@]1(CC[C@@H](Oc3ccc(F)c(C(F)(F)F)c3)CC1)C(=O)N2 [Example 79, (1r,4r)-4-(4-fluoro-3-(trifluoromethyl)phenoxy)-2′-oxo-1′,2′-dihydrospiro[cyclohexane-1,3′-indole]-5′-carboxylic acid]
- inhibition at 0.1 µM (human IP6K2): 89%
- inhibition at 0.1 µM (human IP6K1): 87%
- inhibition at 0.1 µM (human IP6K3): 97%

SMILES: Cn1nc(O[C@H]2CC[C@@]3(CC2)C(=O)Nc2ccc(C(=O)O)cc23)cc1C(F)(F)F [Example 80, (1r,4r)-4-((1-methyl-5-(trifluoromethyl)-1H-pyrazol-3-yl)oxy)-2′-oxo-1′,2′-dihydrospiro[cyclohexane-1,3′-indole]-5′-carboxylic acid]
- inhibition at 0.1 µM (human IP6K2): 82%
- inhibition at 0.1 µM (human IP6K1): 62%
- inhibition at 0.1 µM (human IP6K3): 89%

SMILES: Cc1cc(Cl)cnc1O[C@H]1CC[C@]2(CC1)C(=O)Nc1ccc(C(=O)O)nc12 [Example 81, (1s,4s)-4-((5-chloro-3-methylpyridin-2-yl)oxy)-2′-oxo-1′,2′-dihydrospiro[cyclohexane-1,3′-pyrrolo[3,2-b]pyridine]-5′-carboxylic acid]
- inhibition at 0.1 µM (human IP6K2): 100%
- inhibition at 0.1 µM (human IP6K1): 96%
- inhibition at 0.1 µM (human IP6K3): 100%

SMILES: COc1cc(Cl)ccc1O[C@H]1CC[C@@]2(CC1)C(=O)Nc1ccc(C(=O)O)cc12 [Example 82, (1r,4r)-4-(4-chloro-2-methoxyphenoxy)-2′-oxo-1′,2′-dihydrospiro[cyclohexane-1,3′-indole]-5′-carboxylic acid]
- inhibition at 0.1 µM (human IP6K2): 101%
- inhibition at 0.1 µM (human IP6K1): 98%
- inhibition at 0.1 µM (human IP6K3): 99%

SMILES: COc1cc(Cl)ccc1O[C@H]1CC[C@]2(CC1)C(=O)Nc1ccc(C(=O)O)cc12 [Example 83, (1s,4s)-4-(4-chloro-2-methoxyphenoxy)-2′-oxo-1′,2′-dihydrospiro[cyclohexane-1,3′-indole]-5′-carboxylic acid]
- inhibition at 0.1 µM (human IP6K2): 100%
- inhibition at 0.1 µM (human IP6K1): 97%
- inhibition at 0.1 µM (human IP6K3): 102%
